In patent US20120128646A1, “METHODS AND COMPOSITIONS FOR THE TREATMENT OF AUTOIMMUNE DISEASE” (priority 2009, published 2012):
Entries after “also recorded” stand apart in the source; their conditions may differ.

Columns and labels:
T cell clone BDC-10.1 = test: IFNγ production by T cell clone in antigen assay (ELISA); assay type: cell-based, NOD mouse; conditions: for Stimulation of T cell clone BDC-10.1 (IFNγ response), result in words: peptide or preparation as antigen
Source text: (§1) The T cell clones are maintained in culture by periodic re-stimulation with irradiated NOD splenocytes and islet cells or β-membrane. To assay for antigen, resting responder T cells (i.e., for example, the cells at the end of the two-week restimulation period) are co-cultured for 24 hr with elicited peritoneal macrophages (PEC) as APC and either a test sample or control antigen. Control antigen will be in the form of islet cells or the whole-cell membrane fraction (i.e., for example, a β-membrane fraction). As described above, unlysed β-membrane is stored in aliquots at −80° C. for this purpose. Negative controls include responder cells alone and responders plus APC.
(§2) At the end of the culture period, supernatants are collected from the cultures and IFNγ production is measured by ELISA. Wells positive for IFNγ are indicative of T cells responding to antigen; the amount of cytokine produced is calculated from a standard curve and is directly proportional to the amount of antigen present.
(§3) Antigenicity of islet cells, cellular and biochemical fractions, peptides, or insect cells expressing IA^g7-peptide constructs, was assessed through responses of T cell clones or hybridomas made by fusing T cell clones to the TCR^− version of T cell lymphoma, BW5147. White et al., “Two better cell lines for making hybridomas expressing specific T cell receptors” J Immunol 143:1822-1825 (1989). T cell clone cultures typically contained 2×10^4 responder T cells, 2.5×10^4 NOD peritoneal exudate cells (PEC) as APC, and antigen (SEC/IEX fractions, peptides, islet cells); all assays were performed with β-Mem as a positive control. IFNγ was measured by ELISA of culture supernatants. For cultures with T cell hybridomas, antigen/MHC activation was assessed by IL-2 production measured by a bioassay using the HT-2 T cell line. Walker et al., “Antigenspecific. I region-restricted interactions in vitro between tumor cell lines and T cell hybridomas” J Immunol 128:2164-2169 (1982). Synthetic peptides were either produced in the Molecular Resource Center at National Jewish Health or obtained from CHI Scientific, Maynard, Mass.

T cell clone BDC-2.5 = test: as above; assay type: cell-based, NOD mouse; conditions: for Stimulation of T cell clone BDC-2.5 (IFNγ response), result in words: peptide or preparation as antigen
Source text: as §1, §2, §3

T cell clone BDC-5.10.3 = test: as above; assay type: cell-based, NOD mouse; conditions: for Stimulation of T cell clone BDC-5.10.3 (IFNγ response), result in words: peptide or preparation as antigen
Source text: as §1, §2, §3

soluble IA^g7 = test: Peptide binding to IA^g7: competition with biotinylated HEL peptide; design: species or system NOD mouse; conditions: competition with biotinylated pHEL 11 μM, pH 5.6, overnight
Source text: FIG. 15B: A series of ChgA peptides tested for their ability to compete with a biotinylated HEL peptide for binding to soluble IA^g7. pS3-positive control peptide. IE^k moth cytochrome c-negative control peptide. N=2. Y axis: Percent of IA^g7-bound biotinylated HEL peptide as compared to IE^k. X axis: Log concentration of inhibitor peptide.
In order to confirm the unique binding register of the WE14 peptide, a series of peptides comprising N-terminal extensions and/or C-terminal deletions of WE14 were evaluated for their ability to stimulate the BDC-2.5 T cell clone (FIG. 6a) or to bind to IA^g7. See, FIG. 15A. […] See, FIG. 15B. Further, a pS3 mimotope was used as the positive control peptide and an irrelevant peptide from moth cytochrome c, pMCC, was the negative control peptide. The data were analyzed to determine the stimulatory or binding capacity of the peptides relative to WE14. See, FIG. 15C.
Soluble IA^g7 with covalently attached pHEL was treated with thrombin to cleave the linker attaching the peptide to the IA^g7 β chain. Kozono et al., “Production of soluble MHC class II proteins with covalently bound single peptides” Nature 369:151-154 (1994). Samples (0.5 μg) were incubated with a soluble biotinylated version of pHEL, Biotin-GGGMKRHGLDNYRGYSL (SEQ ID NO: 56) (11 μM), either alone or in the presence of various concentrations of potential competitors peptides, in 15 μL of pH 5.6 buffer overnight at room temperature. The sample was diluted to 100 μL of PBS in a well of a 96-well ELISA plate coated with an anti-IA^g7 monoclonal antibody, OX-6 (BD Pharmaceuticals). The captured IA^g7 was washed several times with PBS and the bound bio-pHEL detected with alkaline phosphatase coupled Extravadin (Sigma) and […].

diabetogenic T cells = test: Immunization of BDC-2.5 TCR-Tg NOD mice with WE14; spleen cell IFNγ ELISA; assay type: in vivo; conditions: WE14 50 mg in CFA day 0, boost in IFA day 7; spleen cells day 14, WE14 100 mg or 200 mg as antigen
Experimental: In one experiment, BDC-2.5 TCR-Tg NOD mice were immunized with WE14 ([…]) in complete Freund's adjuvant (CFA) at day 0 and boosted with WE14 in incomplete Freund's adjuvant (IFA) at day 7. Spleen cells were harvested 14 days after the initial immunization and assayed by ELISA with WE14 (100 mg or 200 mg) as antigen. […] See, FIG. 16.

CD4+ and CD8+ T cells = test: Immunization of NOD mice with WE14; intracellular IFNγ of pLN and spleen T cells by flow cytometry; assay type: in vivo; conditions: WE14 100 mg + IFA i.p. day 0, boost day 30; pLN and spleen at seven weeks
Experimental: In another experiment, NOD mice (3-4 wks old) were immunized intraperitoneally (i.p.) with WE14 (100 mg+IFA) at day 0 and boosted with the same dose of peptide 30 days later. Seven weeks after the initial immunization, pancreatic lymph nodes (pLN) and spleen were harvested and single cell suspensions of these organs were made. The cells were stimulated with anti-CD3 ([…]) and anti-CD28 (2 mg/ml) for 48 hr. PMA/ionomycin and Golgiplug were added for an additional 4 hr. Cells were harvested and analyzed for intracellular IFNγ production by flow cytometry. […] See, FIG. 17.

NOD.scid recipients = test: Adoptive co-transfer of diabetes to NOD.scid recipients with spleen cells from WE14-immunized NOD mice; assay type: in vivo; conditions: 1×10^7 WE14 SC co-transferred i.v. with 1×10^7 diabetic NOD spleen cells
Experimental: In another experiment, NOD mice (3-4 wks old) were immunized with WE14+IFA and 13 days later, single cell suspensions of the spleens (WE14 SC) were prepared. WE14 SC (1×10^7) were co-transferred with spleen cells obtained from a diabetic NOD mouse (1×10^7) into adult NOD.scid recipients by Intravenous (i.v.) injection. Urine glucose was monitored daily following cell transfer and hyperglycemia was confirmed by blood glucose readings.

## WSRMDQLAKELTAE (listed as Mus musculus) [WE14, natural cleavage product of ChgA, aa 359-372]
T cell clone BDC-10.1; BDC-10.1, synthetic peptide
  Potency in activating the BDC clones, fold less potent than the pS3 mimotope: at least 1000 fold
T cell clone BDC-10.1
  Stimulation of T cell clone BDC-10.1 (IFNγ response), result in words: stimulated; also recorded: considerably less potent
T cell clone BDC-10.1; listed as WE-14
  Stimulation of T cell clone BDC-10.1 (IFNγ response), result in words: stimulated
T cell clone BDC-2.5; 100 mg/ml peptide, 100 mg/ml β-membrane = 100%
  Antigen response as percentage of maximal IFN-γ response [% Max]: ~15%
T cell clone BDC-2.5; BDC-2.5, synthetic peptide
  Potency in activating the BDC clones, fold less potent than the pS3 mimotope: at least 1000 fold
T cell clone BDC-2.5
  Stimulation of T cell clone BDC-2.5 (IFNγ response), result in words: weak stimulator; also recorded: weakly stimulated; also recorded: considerably less potent; also recorded: only very weakly
T cell clone BDC-2.5; listed as WE-14
  Stimulation of T cell clone BDC-2.5 (IFNγ response), result in words: stimulated
T cell clone BDC-5.10.3; BDC-5.10.3, synthetic peptide
  Potency in activating the BDC clones, fold less potent than the pS3 mimotope: at least 1000 fold
T cell clone BDC-5.10.3
  Stimulation of T cell clone BDC-5.10.3 (IFNγ response), result in words: stimulated; also recorded: considerably less potent
T cell clone BDC-5.10.3; listed as WE-14
  Stimulation of T cell clone BDC-5.10.3 (IFNγ response), result in words: stimulated
Soluble IA^g7
  IA^g7 binding, result in words: can bind
Diabetogenic T cells
  IFNγ response of the diabetogenic T cells after immunization: considerably reduced
CD4+ and CD8+ T cells
  Inflammatory response (intracellular IFNγ) of CD4+ and CD8+ T cells in lymphoid organs: suppress
NOD.scid recipients
  Onset of disease induced by diabetic NOD spleen cells: considerably delayed
